According to patent US10174005B2, “Fused pyrimidines as inhibitors of p97 complex” (Cleave Biosciences, Inc., priority 2014, dated 2019):
Read-outs that look alike come from different tables or passages of the source.

Assays:
[1] = tested on: A549 cells; assay: Cultured cancer cell viability assay (cell titer glo, CTG) in A549 cells; format: cell-based; settings: Homo sapiens, read-out: A549 CTG IC50
Text: Anti-tumor effects are monitored in cultured cancer cells after several days of compound treatment. The cell titer glo assay (Promega) measures the amount of ATP present as a proxy for cellular viability. Cellular counting is done using high-content microscopy followed by image analysis. A hanging drop 3D-culture system (3D Biomatrix) is used followed by cell titer glo to measure growth in a tumor-like environment.
The cellular assay provides information about the anti-neoplastic activity of the compounds of the invention. The compounds are tested against cultured cancer cells to determine whether or not the compounds of the invention are capable of intersecting with cancer cells to minimize or eliminate such cells. The assay involves establishing colonies of such cells and then treating them with the test compound under specified conditions and analysis regima to determine results.
(§1) Cell Plating: • Seed cells ˜16 hrs prior to compound treatment • Plate 25 μL of A549 cells in every well of 384-well plate using multidrop. • Two (2) black plates for IF at 2500 cells/well • Let plate sit at room temp for 10-15 minutes prior to putting in incubator to • allow cells to stick in middle of plate. • One (1) white plate for viability at 500 cells/well.
(§2) Day 2 Treatment of Cultured Cells with Test Compounds • Treat Cells: • Serial dilute compounds with a 10 point 2-fold serial dilution in DMSO to make 250× stock compound solution • Dilute compounds 1:125 in cell culture media to make a 2× solution Add • 25 μl of dilution compounds to cell plates in well duplicates Put cells back in incubator (6 hr incubation for black plates, 72 hr incubation for white plates).
Viability Assay: • Thaw an aliquot of frozen cell titer glo (Promega G7572) at room temperature. • Add 45 mL of NaCl/PBS solution to 5 ml of cell titer glo (10×). • Remove white plates from incubator, leave at room temp for 30 minutes. • Add 25 μl of diluted cell titer glo to each well. • Shake plate for >1 minute. • Incubate plate for >5 minutes to stabilize luminescence. • Luminescence is stable for up to 3 hours. • Read luminescence on plate reader

[2] = tested on: K48-Ub (lysine-48 chain linkage of poly-ubiquitin) in A549 cells; assay: A549 K48-Ub accumulation, immunofluorescence high-content imaging; format: cell-based; settings: Homo sapiens, 6 hr incubation
Experimental: Image-analysis is used to generate quantitative data from these assays that can be fit to a four-parameter sigmoid curve to derive IC50 values. Substrates of the ubiquitin-proteasome system, such as p53, are monitored after tumor cell lines are incubated with compounds for several hours. Accumulation of these proteins indicates an inhibition of proteasome-mediated degradation. Accumulation of lysine-48 chain linkage of poly-ubiquitin is also monitored by immunofluorescence as an indicator of ubiquitin-proteasome system inhibition. Both LC3 and SQSTM1 are mediators of autophagy. The localization and amounts of these proteins are monitored by immunofluorescence and report on the activity and inhibition of autophagy in response to p97 inhibition.
as §1, §2
Fix/Stain Black Plates: • Incubate cells in black plates with compound at 37 deg C. for 6 hrs. add 15 μL of 16% Paraformaldehyde (PFA) directly into media of each well, incubate at room temp for 5 min, flick plate and wash in 50 μL of PBS block in 50 μL of Blocking Buffer for 30 minutes (can go up to several hours) • Blocking buffer: 1×PBS, 1% BSA, 0.3% Triton-X 100, Hoechst (1:10,000) incubate in 25 μL of primary antibody in blocking buffer at 4 deg C. over night
Secondary Antibodies: • AlexaFluor488 Goat anti-Rabbit 1:2,000 (Life Tech A11008) • AlexaFluor555 Goat anti-Mouse 1:2.000 (Life Tech A21422)
Day 3/4 • Black Plate Staining (cont): • wash black plates 3× in 50 μL PBS (˜5 min each) incubate in 25 μl of secondary antibody (1:2,000) in blocking buffer for 1-2 hrs at room temp (alexafluor488-anti-Rabbit/alexafluor555-anti-Mouse) • wash 4× in 50 μL PBS (˜5 min each) • leave plates in PBS for imaging • clean bottom of plates with 70% EtOH
Imaging: • Image plates in high content microscope with 405 nm, 488 nm and 555 nm filters
Data Analysis: • Nuclear counts and cellular intensities of each markers are measured using Hoechst as a nuclear marker with an automated image analysis protocol using Matlab software (Math Works)

[3] = target: p97 (Homo sapiens, UniProt P55072); assay: P97 ATPase biochemical assay (ADP Glo); settings: 20 nM p97, 20 μM ATP, 37° C. for 15 minutes
Chain of p97 (P55072 whole entry): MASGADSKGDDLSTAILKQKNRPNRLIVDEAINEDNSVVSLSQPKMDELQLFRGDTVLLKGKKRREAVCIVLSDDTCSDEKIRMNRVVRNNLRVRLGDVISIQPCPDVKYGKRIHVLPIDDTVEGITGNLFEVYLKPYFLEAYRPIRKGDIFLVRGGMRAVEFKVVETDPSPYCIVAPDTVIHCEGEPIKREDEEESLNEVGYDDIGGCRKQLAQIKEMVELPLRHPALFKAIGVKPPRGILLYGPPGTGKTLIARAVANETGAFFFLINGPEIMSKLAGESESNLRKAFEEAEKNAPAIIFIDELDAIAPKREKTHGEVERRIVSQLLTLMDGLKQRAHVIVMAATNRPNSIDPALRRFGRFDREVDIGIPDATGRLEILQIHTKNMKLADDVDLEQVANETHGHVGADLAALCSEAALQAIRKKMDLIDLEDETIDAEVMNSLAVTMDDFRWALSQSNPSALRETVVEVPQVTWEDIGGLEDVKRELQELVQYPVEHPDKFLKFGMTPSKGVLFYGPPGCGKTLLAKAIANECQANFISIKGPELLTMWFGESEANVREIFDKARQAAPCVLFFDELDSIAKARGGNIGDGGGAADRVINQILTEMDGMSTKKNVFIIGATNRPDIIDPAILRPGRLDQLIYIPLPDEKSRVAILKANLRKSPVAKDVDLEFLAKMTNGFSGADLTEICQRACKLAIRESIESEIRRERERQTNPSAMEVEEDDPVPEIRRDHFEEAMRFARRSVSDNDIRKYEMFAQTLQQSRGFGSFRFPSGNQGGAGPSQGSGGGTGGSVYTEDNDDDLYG
Experimental: The ATPase assay is performed according the following protocol: Purified enzyme (20 nM p97), substrate (20 μM ATP) and a dose titration of compounds are mixed in buffer (50 mM TRIS pH 7.5, 20 mM MgCl2, 0.02% TX-100, 1 mM DTT, 0.2% (v/v) glycerol) and incubated at 37° C. for 15 minutes. The reaction is terminated and the level of product generated is measured using the ADP Glo Assay Kit (Promega, Madison Wis.). Plotting product generated versus compound concentration and using a four-parameter fit model generates an IC50 value for each compounds.
The p97 assay is an initial screening assay used to determine inhibitory activity of the fused pyrimidine compounds of the invention against the p97 complex. As discussed above, inhibition of activity of the p97 proteosome complex can enable apoptosis and cause elimination of neoplastic cells (cancer cells). The method follows that of Christianson in Nat. Cell Biol., (2011) 14:93.
Assay Buffer is a mixture of 50 mM TRIS pH 7.5, 20 mM MgCl2, 0.02% TX-100, 1 mM DTT and 0.2% (v/v) Glycerol. The well plate is Platetype: Corning 3674, 384w plate. The identification kit is an ADP glo kit (Promega): stop buffer, detection reagent.
Serial dilute compound in DMSO in a 1:3.33-fold 10 point serial dilution.
in each well of 384w plate add the following reagents:
0.5 μL compound serial diluted in DMSO (Final Conc. 10%)
2 μL ATP (Final Conc.=20 uM, diluted in assay buffer)
2.5 μL p97 (Final Conc.=20 nM, diluted in assay buffer)
Incubate at 37 deg C. for 15 min.
Add 5 μL of stop buffer, incubate at RT for 40 min.
Add 10 μL of detection reagent, incubate at RT for 30 min.
Read luminescence on Envision plate reader.
Upon obtaining the data from the luminescence reading, the data may be analyzed as follows:
Normalize luminescence data using no enzyme (full inhibition) and no compound (no inhibition) controls. Plot normalized luminescence data against log-transformed concentration values and fit to a sigmoidal curve to determine IC50 values (done in Collaborative Drug Discovery software).

[4] = A549 cells, 72 hr incubation, cell titer glo

Cc1cc2c(C(N)=O)cccc2n1-c1nc(NCc2ccccc2)c2c(n1)N(C)CCC2 [FF29, 1-(4-(benzylamino)-8-methyl-5,6,7,8-tetrahydropyrido[2,3-d]pyrimidin-2-yl)-2-methyl-1H-indole-4-carboxamide]
IC50 [1, 4]: < 3000 nM | IC50 [2]: < 3000 nM | IC50 [3]: < 30 nM

Cc1cc2c(C(N)=O)cccc2n1-c1nc(NCc2ccccc2)c2c(n1)OCC2 [FF08, 1-(4-(benzylamino)-5,6-dihydrofuro[2,3-d]pyrimidin-2-yl)-2-methyl-1H-indole-4-carboxamide]
IC50 [1, 4]: < 3000 nM | IC50 [2]: < 3000 nM | IC50 [3]: < 100 nM

Cc1cc2c(C(N)=O)cccc2n1-c1nc2c(c(NCc3ccccc3)n1)CCCCC2 [FF18, 1-(4-(benzylamino)-6,7,8,9-tetrahydro-5H-cyclohepta[d]pyrimidin-2-yl)-2-methyl-1H-indole-4-carboxamide]
IC50 [1, 4]: < 1000 nM | IC50 [2]: < 3000 nM | IC50 [3]: < 30 nM

Cc1oc2c(C(N)=O)cccc2c1-c1nc2c(c(NCc3cccc(F)c3)n1)COCC2 [FF22, 3-(4-((3-fluorobenzyl)amino)-7,8-dihydro-5H-pyrano[4,3-d]pyrimidin-2-yl)-2-methylbenzofuran-7-carboxamide]
IC50 [3]: < 1000 nM

COc1nc2c(C(N)=O)cccc2n1-c1nc2c(c(NCc3ccccc3)n1)CCCN2 [FF23, 1-(4-(benzylamino)-5,6,7,8-tetrahydropyrido[2,3-d]pyrimidin-2-yl)-2-methoxy-1H-benzo[d]imidazole-4-carboxamide]
IC50 [1, 4]: < 3000 nM | IC50 [2]: < 3000 nM | IC50 [3]: < 30 nM

Cc1cc2c(C(N)=O)cccc2n1-c1nc(NCc2ccccc2)c2c(n1)OCCC2 [FF06, 1-(4-(benzylamino)-6,7-dihydro-5H-pyrano[2,3-d]pyrimidin-2-yl)-2-methyl-1H-indole-4-carboxamide]
IC50 [1, 4]: < 1000 nM | IC50 [2]: < 1000 nM | IC50 [3]: < 30 nM

NC(=O)c1cccc2c1cc(CO)n2-c1nc2c(c(NCc3ccccc3)n1)CCCN2 [FF17, 1-(4-(benzylamino)-5,6,7,8-tetrahydropyrido[2,3-d]pyrimidin-2-yl)-2-(hydroxymethyl)-1H-indole-4-carboxamide]
IC50 [1, 4]: < 1000 nM | IC50 [3]: < 30 nM

Cc1oc2c(C(N)=O)cccc2c1-c1nc2c(c(NCc3ccccc3)n1)CCCC2 [FF35, 3-(4-(benzylamino)-5,6,7,8-tetrahydroquinazolin-2-yl)-2-methylbenzofuran-7-carboxamide]
IC50 [1, 4]: < 3000 nM | IC50 [2]: < 3000 nM | IC50 [3]: < 30 nM

Cc1cc2c(C(N)=O)cccc2n1-c1nc(NCc2cc(F)cc(F)c2)c2c(n1)OCCC2 [FF30, 1-(4-((3,5-difluorobenzyl)amino)-6,7-dihydro-5H-pyrano[2,3-d]pyrimidin-2-yl)-2-methyl-1H-indole-4-carboxamide]
IC50 [1, 4]: < 3000 nM | IC50 [2]: < 3000 nM | IC50 [3]: < 30 nM

COc1nc2c(C(N)=O)cccc2n1-c1nc(NCc2cccc(F)c2)c2c(n1)OCCC2 [FF15, 1-(4-((3-fluorobenzyl)amino)-6,7-dihydro-5H-pyrano[2,3-d]pyrimidin-2-yl)-2-methoxy-1H-benzo[d]imidazole-4-carboxamide]
IC50 ([1]; A549, 72 h): < 3000 nM | IC50 [3]: < 30 nM

NC(=O)c1cccc2c1cnn2-c1nc2c(c(NCc3cccc(F)c3)n1)CCCC2 [FF14, 1-(4-((3-fluorobenzyl)amino)-5,6,7,8-tetrahydroquinazolin-2-yl)-1H-indazole-4-carboxamide]
IC50 [1, 4]: < 3000 nM | IC50 [3]: < 100 nM

NC(=O)c1cccc2c1cnn2-c1nc2c(c(NCc3ccccc3)n1)CNCC2 [FF33, 1-(4-(benzylamino)-5,6,7,8-tetrahydropyrido[4,3-d]pyrimidin-2-yl)-1H-indazole-4-carboxamide]
IC50 [3]: < 1000 nM

Cc1cc2c(C(N)=O)cccc2n1-c1nc2c(c(NCc3ccccc3)n1)CCNCC2 [FF20, 1-(4-(benzylamino)-6,7,8,9-tetrahydro-5H-pyrimido[4,5-d]azepin-2-yl)-2-methyl-1H-indole-4-carboxamide]
IC50 ([1]; A549, 72 h): < 3000 nM | IC50 [3]: < 300 nM

Cc1[nH]c2ccccc2c1-c1nc2c(c(NCc3ccccc3)n1)CCCC2 [FF36, N-benzyl-2-(2-methyl-1H-indol-3-yl)-5,6,7,8-tetrahydroquinazolin-4-amine]
IC50 [1, 4]: < 10000 nM | IC50 [2]: < 10000 nM

NC(=O)c1cccc2c1cnn2-c1nc2c(c(NCc3ccccc3)n1)COCC2 [FF04, 1-(4-(benzylamino)-7,8-dihydro-5H-pyrano[4,3-d]pyrimidin-2-yl)-1H-indazole-4-carboxamide]
IC50 [3]: < 300 nM

Cc1cc2c(CN)cccc2n1-c1nc(NCc2ccccc2)c2c(n1)OCCC2 [FF31, 2-(4-(aminomethyl)-2-methyl-1H-indol-1-yl)-N-benzyl-6,7-dihydro-5H-pyrano[2,3-d]pyrimidin-4-amine]
IC50 [3]: < 300 nM

CN1CCCc2nc(-n3ncc4c(C(N)=O)cccc43)nc(NCc3cccc(F)c3)c21 [FF11, 1-(4-((3-fluorobenzyl)amino)-5-methyl-5,6,7,8-tetrahydropyrido[3,2-d]pyrimidin-2-yl)-1H-indazole-4-carboxamide]
IC50 [3]: < 100 nM

NC(=O)c1cccc2c1cnn2-c1nc(NCc2cccc(F)c2)c2c(n1)OCCC2 [FF16, 1-(4-((3-fluorobenzyl)amino)-6,7-dihydro-5H-pyrano[2,3-d]pyrimidin-2-yl)-1H-indazole-4-carboxamide]
IC50 [1, 4]: < 10000 nM | IC50 [3]: < 30 nM

Cc1cc2c(C(N)=O)cccc2n1-c1nc(NCc2ccccc2)c2c(n1)C(C)CN(C)C2 (stereo not drawn) [FF13, 1-(4-(benzylamino)-6,8-dimethyl-5,6,7,8-tetrahydropyrido[4,3-d]pyrimidin-2-yl)-2-methyl-1H-indole-4-carboxamide]
IC50 [3]: < 100 nM
